In patent publication US20260083727A1, “PHARMACEUTICAL FORMULATIONS OF NINTEDANIB FOR INTRAOCULAR USE” (Boehringer Ingelheim International GmbH, priority 2022, published 2026):

Test: Water solubility
Assay type: physicochemical
Conditions: in words

For `COC(=O)c1ccc2c(c1)NC(=O)/C2=C(\Nc1ccc(N(C)C(=O)CN2CCN(C)CC2)cc1)c1ccccc1` [nintedanib (free base)], the solubility in water was “very poor”.
